This note sets out measurements from patent publication US8148360B2, “Supramolecular metallic complexes exhibiting both DNA binding and photocleavage” (Virginia Tech Intellectual Properties, Inc., priority 2006, dated 2012).

Assay [1] deals with pUC18 circular plasmid DNA. Kind of assay: DNA binding by agarose gel electrophoresis (migration shift of plasmid). The note with it: for DNA binding: 10:1 metal complex:DNA base pair, with and without O2. From the text: (§1) FIG. 6. DNA binding and photocleavage by [{(bpy)2Ru(dpp)}2Ru(dpp)PtCl2](PF6)6 (Ru3Pt) assayed with 0.8% agarose gel electrophoresis post stained with ethidium bromide using circular plasmid pUC18 DNA with comparison to cis-[Pt(NH3)2Cl2] (Cisplatin) and [{(bpy)2Ru(dpp)}2Ru(dpp)](PF6)6 (Ru3) (bpy=2,2′-bipyridine, dpp=2,3-bis(2-pyridyl)pyrazine). Lanes λ are the molecular weight standards (23, 9.4, 6.6, 4.4, 2.3, and 2.0 kb), lanes C are the DNA controls showing mostly form I and minor form II pUC18 DNA. The cisplatin lane 1 is a 5:1 base pair (BP):metal complex (MC) and lane 2 a 20:1 BP:MC incubated for 1 hour at 37° C. The Ru3 lane 1 is a 20:1 BP:MC incubated for 1 hour at 37° C. The Ru3Pt lane 1 is 20:1 BP:MC kept in the dark at room temperature, lane 2 is 20:1 BP:MC incubated for 1 hour in the dark at 37° C., lane 3 is 20:1 BP:MC photolyzed with 450 nm-1000 nm light for 1 hour under atmospheric conditions, lane 4 is 20:1 BP:MC photolyzed with 450 nm-1000 nm light for 1 hour under argon.
(§2) FIG. 9. DNA binding and photocleavage by [{(bpy)2Ru(dpp)}2Ru(dpq)PtCl2](PF6)6. Lane 1 is the molecular weight standard, lane C is the pUC18 DNA plasmid control, lane 25° is 10:1 metal complex:DNA base pair incubated at 25° C., lane 37° is the 10:1 ratio incubated at 37° C., Ar* is the 10:1 ratio photolyzed for 1 hour under Ar, lane O2* is the 10:1 ratio photolyzed under ambient atmosphere.
(§3) FIG. 10. DNA binding and photocleavage by [{(bpy)2Os(dpp)}2Ru(dpq)PtCl2](PF6)6. Lane 1 is the molecular weight standard, lane C is the pUC18 DNA plasmid control, lane 25° is 10:1 metal complex:DNA base pair incubated at 25° C., lane 37° is the 10:1 ratio incubated at 37° C., Ar* is the 10:1 ratio photolyzed for 1 hour under Ar, lane O2* is the 10:1 ratio photolyzed under ambient atmosphere.
(§4) The DNA binding and photocleavage ability of the exemplary complex, [{(bpy)2Ru(dpp)}2Ru(dpp)PtCl2](PF6)6, has been investigated using gel electrophoresis. The cis-dichloroplatinum(II) moiety is designed to allow the complex to bind covalently to DNA. The Ru polyazine units are designed to allow the complex to undergo sensitization of molecular oxygen leading to DNA photocleavage. The presence of the cis-dichloroplatinum(II) sub-unit delivers the Ru polyazine sub-unit to its target prior to optical excitation. DNA interactions of [{(bpy)2Ru(dpp)}2Ru(dpp)PtCl2](PF6)6 were compared to a binding analyses of Ru3 and cisplatin using gel electrophoresis and pUC18 circular plasmid DNA, (2686 BP, Bayou Biolabs) post-stained with ethidium bromide. Lanes λ are the molecular weight standards (23, 9.4, 6.6, 4.4, 2.3, and 2.0 kb). Lanes C are the pUC18 DNA controls, showing primarily the supercoiled (form I) and minor nicked (form II) forms of the circular pUC18 plasmid. The lane 1 for cisplatin is a 5:1 base pairs (BP):metal complex (MC) and lane 2 is a 20:1 BP:MC solution incubated at 37° C. for 1 hr. […] Lane 1 of “Ru3Pt” is the 20:1 DNA BP: MC solution of [{(bpy)2Ru(dpp)}2Ru(dpp)PtCl2](PF6)6 incubated at 37° C. for 1 hr. […] Lane 4 is a 20:1 BP:MC solution photolyzed at λ>450 nm for 1 hour, under argon.
A mixed-metal complex, [{(bpy)2Ru(dpp)}2Ru(dpq)PtCl2](PF6)6, was synthesized using bridging ligands dpq (2,3-bis(2-pyridyl)quinoxaline), and dpp (the ligand described in Example 1). The complex was tested for its ability to bind DNA and to photocleave the DNA in an O2 dependent manner by incubating the complex with DNA in the ambient atmosphere and under argon. […]

Assay [2] deals with pUC18 circular plasmid DNA. Kind of assay: DNA photocleavage by agarose gel electrophoresis (form I to form II conversion) after visible light photolysis. The format is biochemical. The settings on record: for DNA photocleavage: 10:1 ratio; for DNA photocleavage (supercoiled form I to nicked form II): 20:1 BP:MC.
From the text: as §1, §2, §3, §4
A mixed-metal complex, [{(bpy)2Ru(dpp)}2Ru(dpq)PtCl2](PF6)6, was synthesized using bridging ligands dpq (2,3-bis(2-pyridyl)quinoxaline), and dpp (the ligand described in Example 1). The complex was tested for its ability to bind DNA and to photocleave the DNA in an O2 dependent manner by incubating the complex with DNA in the ambient atmosphere and under argon. […] This illustrates the metal complex binds to DNA and photocleaves DNA in a oxygen dependent manner.
A mixed-metal complex, [{(bpy)2Os(dpp)}2Ru(dpq)PtCl2](PF6)6, was synthesized using bridging ligands dpq (2,3-bis(2-pyridyl)quinoxaline), and dpp (as described in Example 3) but using osmium as a light absorbing metal component. […] This illustrates this metal complex also binds to DNA and photocleaves DNA in a oxygen dependent manner.

Setting [3] is: photolyzed under ambient atmosphere (O2).

As for [{(bpy)2Os(dpp)}2Ru(dpq)PtCl2](PF6)6, the DNA binding entry in assay [1] is given as “effective in binding to DNA”. Moreover, the results for the DNA photocleavage entry in assay [2] (photolyzed for 1 hour under Ar) and in assay [2] (setting [3]) were “not in the absence of O2” and “cleaved only when O2 was present”, respectively.

Regarding “[{(bpy)2Ru(dpp)}2Ru(dpp)PtCl2](PF6)6 [Ru3Pt]”, the “DNA binding (migration of pUC18 through the gel)” value in assay [1] (Ru3Pt lane 1, 20:1 BP:MC, b60 prints incubated at 37° C. for 1 hr, FIG. 6 legend prints kept in the dark at room temperature) is on record as “decreased migration of the form I pUC18 through the gel”. For the same substance, the “DNA photocleavage (supercoiled form I to nicked form II)” value in assay [2] (photolyzed λ>450 nm for 1 hour, under argon) is recorded as “no DNA photocleavage is observed”; in assay [2] (photolyzed λirr>450 nm for 1 hour, under atmospheric conditions), “appreciable conversion of the supercoiled (form 1) to nicked (form II) DNA”.

Consider “[{(bpy)2Ru(dpp)}2Ru(dpp)](PF6)6 [Ru3, reference compound]”, for which, in assay [1] (20:1 BP:MC, incubated at 37° C. for 1 hr), the “DNA binding (migration of pUC18 through the gel)” value is listed as “migration of the DNA is not impacted”.

As for [{(bpy)2Ru(dpp)}2Ru(dpq)PtCl2](PF6)6, the DNA binding result in assay [1] is on record as “effective in binding to DNA”. The results for the DNA photocleavage entry in assay [2] (photolyzed for 1 hour under Ar) and in assay [2] (setting [3]) were “not in the absence of O2” and “cleaved only when O2 was present”, respectively.

Consider “cis-[Pt(NH3)2Cl2] [cisplatin, reference compound]”, for which, in assay [1] (5:1 and 20:1 BP:MC, incubated at 37° C. for 1 hr), the “DNA binding (migration of pUC18 through the gel)” value is listed as “migration of form I of the pUC18 is retarded”.
